According to patent US5134137A, “Cephalosporin antibiotics” (The Upjohn Company, priority 1990, dated 1992):
Values after ≈ are worked out from the molar mass of the structure shown. Like-named read-outs stand apart in the source and are kept apart here.

What was measured:
[1] = tested on: Streptococcus suis; assay: MIC, agar dilution, Streptococcus suis; format: cell-based
Method in brief: (§1)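 Each organism receives an inoculum of approx. 10^3–10^4 CFU, taken from a 5% CO2 BHI subculture standardised to 0.5 McFarland and diluted 1:20. It is spotted on Mueller-Hinton agar containing the compound, then incubated for 16–18 h at 37 °C with CO2.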

[2] = tested on: Salmonella typhimurium; assay: MIC, agar dilution, Salmonella typhimurium; format: cell-based; settings: Salmonella enterica, read-out: MIC
Method in brief: as §1

[3] = tested on: Salmonella typhimurium; assay: Systemic infection model in mice, ED50, Salmonella typhimurium; format: in vivo; settings: Salmonella enterica, 144 h, 50% survival six days post infection, per day, read-out: ED50 (95% confidence limits)
Description: (§2) Experimental Infections and Antitiotic Treatment (for ED50 in mice tests).
(§3) Mice are infected and treated with the test antibiotic compound according to procedures described previously [Yancey, Jr., R. J. et at. supra].
(§4) The test antibiotic compound is administered subcutaneously immediately following infection, then at 24 hours and 48 hours post infection. The medium effective dose (ED50) number is determined for all infections. The ED50 value is defined as the calculated concentration of the test antibiotic compound in mg. of compound per kilogram of mouse body weight per day at which 50% of the animals survived six days post infection.

[4] = tested on: Escherichia coli; assay: MIC, agar dilution, Escherichia coli; format: cell-based; settings: Escherichia coli, read-out: MIC
Method in brief: as §1

[5] = tested on: Pasteurella hemolytica; assay: MIC (minimum inhibitory concentration), agar dilution, Pasteurella hemolytica; format: cell-based; settings: Pasteurella, read-out: MIC
Method in brief: as §1

[6] = tested on: Streptococcus agalactiae; assay: MIC, agar dilution, Streptococcus agalactiae; format: cell-based; settings: Streptococcus agalactiae, read-out: MIC
Method in brief: as §1

[7] = tested on: Streptococcus uberis; assay: MIC, agar dilution, Streptococcus uberis; format: cell-based; settings: Streptococcus uberis, read-out: MIC
Method in brief: as §1

[8] = tested on: Bordetella bronchiseptica; assay: MIC, agar dilution, Bordetella bronchiseptica; format: cell-based; settings: Bordetella bronchiseptica, read-out: MIC
Method in brief: as §1

[9] = tested on: Pasteurella multocida; assay: MIC, agar dilution, Pasteurella multocida; format: cell-based; settings: Pasteurella multocida; strain B77-18; read-out: MIC
Method in brief: as §1

[10] = tested on: P. hemolytica; assay: Systemic infection model in mice, ED50, P. hemolytica; format: in vivo; settings: Mus musculus, sc, 144 h, 50% survival six days post infection, per day, read-out: ED50 (95% confidence limits)
Description: as §2, §3, §4

[11] = tested on: Streptococcus bovis; assay: MIC, agar dilution, Streptococcus bovis; format: cell-based; settings: Streptococcus equinus; strain UC6281; read-out: MIC
Method in brief: as §1

[12] = Streptococcus suis, strain 538-2, read-out: MIC
[13] = TYPHIMURIUM / UC6162, strain UC6162
[14] = TYPHIMURIUM / UC6164, strain UC6164
[15] = TYPHIMURIUM / UC6162, sc, strain UC6162, subcutaneous, 0, 24, 48 hours post infection
[16] = TYPHIMURIUM / UC6164, sc, strain UC6164, lactamase producing, subcutaneous, 0, 24, 48 hours post infection
[17] = strain UC6531, subcutaneous, 0, 24, 48 hours post infection
[18] = strain UC6532, lactamase producing, subcutaneous, 0, 24, 48 hours post infection

CO/N=C(\C(=O)N[C@@H]1C(=O)N2C(C(=O)O)=C(CS)CS[C@H]12)c1csc(N)n1 [Formula III compound, 3-mercaptomethyl-7β-[2-(2-amino-1,3-thiazol-4-yl)-(Z)-2-(methoxyimino)acetamido]ceph-3-em-4-carboxylic acid]
MIC [1, 12]: ≤ 0.06 µg/mL | MIC ([1]; strain 650-2): ≤ 0.06 µg/mL | MIC [2, 13]: 0.5 µg/mL | MIC [2, 14]: 0.5 µg/mL | ED50 [3, 15]: 0.3 mg/kg | ED50 [3, 16]: 0.5 mg/kg | MIC ([4]; strain ATCC25922): 0.5 µg/mL | MIC ([4]; strain P75-1): 0.5 µg/mL | MIC ([4]; strain UC3784): 0.5 µg/mL | MIC ([4]; strain UC6720): 0.5 µg/mL | MIC ([5]; strain B77-19): ≤ 0.06 µg/mL | MIC ([5]; strain UC6531): ≤ 0.06 µg/mL | MIC ([5]; strain UC6532): ≤ 0.06 µg/mL | MIC ([6]; strain UC3947): ≤ 0.06 µg/mL | MIC ([6]; strain UC6892): ≤ 0.06 µg/mL | MIC ([7]; strain UC3946): 0.25 µg/mL | MIC ([7]; strain UC6159): 32 µg/mL | MIC ([8]; strain UC3287): > 32 µg/mL | MIC ([8]; strain UC6313): > 32 µg/mL | MIC [9]: ≤ 0.06 µg/mL | ED50 [10, 17]: 0.8 mg/kg | ED50 [10, 18]: 0.8 mg/kg | MIC [11]: ≤ 0.06 µg/mL

CO/N=C(\C(=O)N[C@@H]1C(=O)N2C(C(=O)O)=C(CO)CS[C@H]12)c1csc(N)n1 [desacetyl cefotoxime, 7-[2-(2-amino-1,3-thiazol-4-yl)-(syn)-2-methoxyiminoacetamido]-3-hydroxymethylceph-3-em-4-carboxylic acid, reference compound]
MIC [1, 12]: ≤ 0.06 µg/mL | MIC ([1]; strain 650-2): ≤ 0.06 µg/mL | MIC [2, 13]: 0.13 µg/mL (≈ 0.314 µM) | MIC [2, 14]: 0.13 µg/mL (≈ 0.314 µM) | ED50 [3, 15]: 0.8 mg/kg | ED50 [3, 16]: 1 mg/kg | MIC ([4]; strain ATCC25922): 0.25 µg/mL (≈ 0.605 µM) | MIC ([4]; strain P75-1): 0.25 µg/mL (≈ 0.605 µM) | MIC ([4]; strain UC3784): 0.25 µg/mL (≈ 0.605 µM) | MIC ([4]; strain UC6720): 0.25 µg/mL (≈ 0.605 µM) | MIC ([5]; strain B77-19): ≤ 0.06 µg/mL | MIC ([5]; strain UC6531): ≤ 0.06 µg/mL | MIC ([5]; strain UC6532): ≤ 0.06 µg/mL | MIC ([6]; strain UC3947): ≤ 0.6 µg/mL | MIC ([6]; strain UC6892): ≤ 0.06 µg/mL | MIC ([7]; strain UC3946): ≤ 0.06 µg/mL | MIC ([7]; strain UC6159): 16 µg/mL (≈ 38.7 µM) | MIC ([8]; strain UC3287): > 32 µg/mL | MIC ([8]; strain UC6313): > 32 µg/mL | MIC [9]: ≤ 0.06 µg/mL | ED50 [10, 17]: 0.3 mg/kg | ED50 [10, 18]: 0.6 mg/kg | MIC [11]: ≤ 0.06 µg/mL

CO/N=C(\C(=O)N[C@@H]1C(=O)N2C(C(=O)O)=C(CSC(=O)c3ccco3)CS[C@H]12)c1csc(N)n1 [ceftiofur, 7-[2-(amino-1,3-thiazol-4-yl)-2-(methoxyimino)acetamido]-3-[(fur-2-ylcarbonyl)thiomethyl]-3-cephem-4-carboxylic acid, reference compound]
MIC [1, 12]: ≤ 0.06 µg/mL | MIC ([1]; strain 650-2): ≤ 0.06 µg/mL | MIC [2, 13]: 0.25 µg/mL (≈ 0.477 µM) | MIC [2, 14]: 0.25 µg/mL (≈ 0.477 µM) | ED50 [3, 15]: 0.4 mg/kg | ED50 [3, 16]: 0.5 mg/kg | MIC ([4]; strain ATCC25922): 0.13 µg/mL (≈ 0.248 µM) | MIC ([4]; strain P75-1): 0.13 µg/mL (≈ 0.248 µM) | MIC ([4]; strain UC3784): 0.13 µg/mL (≈ 0.248 µM) | MIC ([4]; strain UC6720): 0.13 µg/mL (≈ 0.248 µM) | MIC ([5]; strain B77-19): ≤ 0.06 µg/mL | MIC ([5]; strain UC6531): ≤ 0.06 µg/mL | MIC ([5]; strain UC6532): ≤ 0.06 µg/mL | MIC ([6]; strain UC3947): ≤ 0.06 µg/mL | MIC ([6]; strain UC6892): ≤ 0.06 µg/mL | MIC ([7]; strain UC3946): ≤ 0.06 µg/mL | MIC ([7]; strain UC6159): 0.25 µg/mL (≈ 0.477 µM) | MIC ([8]; strain UC3287): > 32 µg/mL | MIC ([8]; strain UC6313): > 32 µg/mL | MIC [9]: ≤ 0.06 µg/mL | ED50 [10, 17]: 0.8 mg/kg | ED50 [10, 18]: 0.9 mg/kg | MIC [11]: ≤ 0.06 µg/mL
